How the values were obtained:
[1] = tested on: mice subjected to hindlimb ischemia reperfusion injury; assay: Hindlimb ischemia reperfusion injury (2 hours ischemia, 3 hours reperfusion), Example 1; type: in vivo, C57BL/6 mice
Description: Anesthetized adult male C57BL/6 mice were subjected to hindlimb ischemia reperfusion injury (bilateral leg tourniquets for 2 hours (ischemia) followed by 3 hours of reperfusion after tourniquet removal). To determine whether exogenous iodide could reduce damage to heart and lung tissue caused by the ischemia reperfusion injury, various doses of iodide (0 mg/kg, 1 mg/kg, 10 mg/kg or 20 mg/kg) were administered intravenously (i.v.) by the retro orbital (r.o.) to the animals 5 minutes prior to reperfusion of the hind limb.
The animals were then sacrificed and blood (plasma) and lung and GC muscle samples obtained. The blood (plasma) samples were assayed to determine the concentrations of creatine kinase and cardiac troponin present in each. In addition, the amount of edema present in the lung and GC muscle was determined as wet weight/dry weight.

[2] = tested on: mice subjected to bilateral hind limb ischemia; assay: Bilateral hind-limb ischemia model of systemic inflammation, Study A (2 hours ischemia, 3 hours reperfusion); type: in vivo, C57Bl/6 mice; conditions: after 3 hours of reperfusion
Description: (§1) A bilateral hind-limb ischemia model was used to induce systemic inflammation. Male C57Bl/6 mice (7-10 weeks old) were subjected to 2 hours of bilateral hind limb ischemia followed by 3 hours of reperfusion. Ischemia was induced by application of latex o-rings above the greater trochanter using a McGivney Hemorrhoidal ligator. After 3 hours of reperfusion, the plasma was analyzed for levels of creatine kinase (CK), or other markers of organ injury: blood urea nitrogen (BUN), alanine aminotransferase (ALT), and aspartate aminotransferase (AST).
A 1, 3, 10, or 20 mg/kg bolus of sodium iodide was administered intravenously (i.v.) by the retro orbital (r.o.) route 5 minutes prior to reperfusion of the hind limbs.

[3] = tested on: mice subjected to bilateral hind limb ischemia; assay: Hind limb ischemia survival, Study B (2.5 hours ischemia, NaI in drinking water); type: in vivo, C57Bl/6 mice
Description: as §1
The model used to evaluate survival was similar to that previously described for Study A; however, the time of ischemia was increased to 2.5 hours. The time from reperfusion to death was monitored for the next 24 hours.
The drinking water of the mice was supplemented with 84 μM NaI and the mice were allowed ad libitium access (p.o.) to this water for >5 days prior to hind limb ischemia.

[4] = tested on: mice subjected to bilateral hind limb ischemia; assay: Hind limb ischemia survival, Study C (3 hours ischemia, i.v. bolus); type: in vivo, C57Bl/6 mice
Description: as §1
The model used to evaluate survival was similar to that previously described for Study A; however, the time of ischemia was increased to 3 hours. The time from reperfusion to death was monitored for the next 2 months.
A 1 mg/kg bolus of sodium iodide was administered intravenously (i.v.) by the retro orbital (r.o.) route 5 minutes prior to reperfusion of the hind limbs.

[5] = tested on: mice subject to bilateral hind limb ischemia (HLI); assay: Hind limb ischemia (HLI) cytokine levels in muscle and plasma, Example 3; type: in vivo, C56Bl/6 mice; conditions: 24 hours after reperfusion
Description: A mouse model of hind limb ischemia was utilized to induce intramuscular and systemic inflammation. Male C56Bl/6 mice˜7-10 weeks old were subject to bilateral hind limb ischemia (HLI) by placing an O-ring on both hind limbs for 2.5 hours. Five minutes prior to reperfusion an intravenous bolus of sodium iodide (NaI; FDY-5301) at a concentration of 1 mg/kg was delivered. Vehicle treated animals received an i.v. bolus of saline. After i.v. delivery, at the 2.5 hour mark, the O-rings were cut off and removed to allow for tissue reperfusion. The mice were sacrificed 24 hours following reperfusion. Upon sacrifice, whole blood was removed (plasma was then separated and frozen at −80° C.), the gastronemius muscle was removed and snap frozen in liquid nitrogen and then stored at −80° C. The cytokines were evaluated on a MAGPIX® instrument (Luminex Corp) using a custom multiplex assay kit from MilliporeSigma (MCYTOMAG-70K-09, containing: INF-γ, IL-18, IL-2, IL-6, IL-10, KC, LIX, MIP-2 & TNF-α.

[6] = i.v. administration 5 minutes prior to reperfusion, FIG. 2
[7] = 1 mg/kg i.v. bolus 5 minutes prior to reperfusion, 2.5 h ischemia, p<0.05, FIG. 7

[I-].[Na+] [sodium iodide]
plasma CK (creatine kinase) levels compared to vehicle ([1]; 1 mg/kg, 10 mg/kg or 20 mg/kg i.v. (retro orbital) 5 minutes prior to reperfusion, 2 h ischemia, 3 h reperfusion, FIG. 1A): significantly reduced | level of cardiac troponin ([1]; 10 mg/kg i.v. 5 minutes prior to reperfusion, plasma, 2 h ischemia, 3 h reperfusion, FIG. 1B): significantly reduced | muscle edema (gastrocnemius), wet weight/dry weight [1, 6]: reduced | pulmonary edema (lung), wet weight/dry weight [1, 6]: reduced | plasma CK levels compared to vehicle ([2]; 1 mg/kg i.v. bolus 5 minutes prior to reperfusion, FIG. 3): significantly reduced | plasma level of blood urea nitrogen (BUN) ([2]; 1, 3, 10 or 20 mg/kg i.v. bolus 5 minutes prior to reperfusion, FIG. 4A): reduced | plasma level of alanine aminotransferase (ALT) ([2]; 1, 3, 10 or 20 mg/kg i.v. bolus 5 minutes prior to reperfusion, FIG. 4B): reduced | plasma level of aspartate aminotransferase (AST) ([2]; 1, 3, 10 or 20 mg/kg i.v. bolus 5 minutes prior to reperfusion, FIG. 4C): reduced | animals alive at 24 hours ([3]; 84 μM in drinking water (p.o.) >5 days prior to ischemia, vehicle 50%): 90% | survival compared to vehicle ([3]; 84 μM in drinking water ad libitum (p.o.) >5 days prior to ischemia, monitored 24 hours, FIG. 5): significantly increased | survival compared to vehicle administration ([4]; 1 mg/kg i.v. bolus 5 minutes prior to reperfusion): increased | animals alive after 72 hours ([4]; 1 mg/kg i.v. bolus 5 minutes prior to reperfusion, vehicle 0%, FIG. 6A): 20% | further survival of the animals alive after 72 hours (study ended at this point) ([4]; 1 mg/kg i.v. bolus, FIG. 6B): ≥ 2 months | plasma IL-6 ([5]; 1 mg/kg i.v. bolus 5 minutes prior to reperfusion, 2.5 h ischemia, FIG. 8): significant reduction | IL-6 in muscle tissue [5, 7]: significant reduction | IL-10 in muscle tissue [5, 7]: significant reduction | KC in muscle tissue [5, 7]: significant reduction | MIP-2 in muscle tissue [5, 7]: significant reduction | inflammation, heat map of all cytokines assessed in muscle or plasma ([5]; 1 mg/kg i.v. bolus, FIGS. 9 and 10): overall reduction | cytokine levels in plasma ([5]; FIG. 8): significantly reduced | cytokine levels in muscle tissue (IL-6, IL-10, CXCL1 or KC, MIP-2) ([5]; FIGS. 7A-7D): significantly reduced

Source: patent US20210252047A1, “USE OF HALOGEN COMPOUNDS FOR THE TREATMENT AND PREVENTION OF TISSUE INJURY AND POST-INTENSIVE CARE SYNDROME” (Faraday Pharmaceuticals, Inc., priority 2018, published 2021)
